# According to ChEMBL document CHEMBL5226347, “Discovery of Chromane-6-Sulfonamide Derivative as a Potent, Selective, and Orally Available Novel Retinoic Acid Receptor-Related Orphan Receptor γt Inverse Agonist” (J Med Chem, 2021):
# Assays:
# [1] = Lipophilicity, log D of the compound at pH 7.4; format: physicochemical; conditions: buffer
# [2] = target: T1, Nuclear receptor ROR-gamma (Homo sapiens, UniProt P51449); test: Displacement of BODIPY from APC-labelled human RORgammat LBD incubated for 15 mins by LANCE detection analysis
# T1 sequence (P51449 whole entry): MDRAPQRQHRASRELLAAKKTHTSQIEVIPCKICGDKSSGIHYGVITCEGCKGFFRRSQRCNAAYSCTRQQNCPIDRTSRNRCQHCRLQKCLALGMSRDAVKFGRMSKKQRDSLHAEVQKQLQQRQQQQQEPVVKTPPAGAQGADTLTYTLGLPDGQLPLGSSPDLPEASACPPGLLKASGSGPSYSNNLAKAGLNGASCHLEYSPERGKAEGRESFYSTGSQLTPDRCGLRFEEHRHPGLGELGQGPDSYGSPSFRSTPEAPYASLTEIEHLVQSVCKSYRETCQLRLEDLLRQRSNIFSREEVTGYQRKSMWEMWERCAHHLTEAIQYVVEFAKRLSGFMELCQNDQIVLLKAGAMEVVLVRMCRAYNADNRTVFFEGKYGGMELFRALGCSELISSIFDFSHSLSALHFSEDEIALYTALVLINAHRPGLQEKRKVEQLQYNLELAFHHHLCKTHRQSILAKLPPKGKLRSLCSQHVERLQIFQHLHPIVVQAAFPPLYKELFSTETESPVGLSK
# [3] = target: T1, Nuclear receptor ROR-gamma; test: Inhibition of RORgammat in human Jurkat cells assessed as inhibition of RORgammat transcriptional activity incubated for 10 mins by luciferase reporter gene assay; format: cell-based
# [4] = Metabolic stability in human liver assessed as intrinsic clearance incubated for 5 to 30 mins by HPLC-MS/MS analysis; format: ADME, tissue-based; conditions: liver (preparation not stated), time 5-30 min, read-out: CLH
# [5] = Metabolic stability in human liver microsomes assessed as half life incubated for 5 to 30 mins by HPLC-MS/MS analysis; format: ADME, Microsome; conditions: time 5-30 min; for t1/2: microsomes
# [6] = Metabolic stability in human liver microsomes assessed as parent compound remaining measured at 60 mins by HPLC-MS/MS analysis; format: ADME, Microsome; conditions: 1 h
# Mus musculus [7] = test: Antiinflammatory activity against imiquimod-induced Balb/c mouse skin inflammation model assessed as inhibition of IL-17A level at 20 mg/kg, po measured for 13 days; format: functional; set-up: scale not given: the % may be the effect or the level left; conditions: time 13 day
# Mus musculus [8] = test: Antiinflammatory activity against imiquimod-induced Balb/c mouse skin inflammation model assessed as reduction in severity index score at 20 mg/kg, po BID for 13 days; format: functional; set-up: scale not given: the % may be the effect or the level left; conditions: time 13 day
# [9] = Solubility of compound in aqueous buffer at pH 7.4; format: physicochemical
# Mus musculus [10] = test: Antiinflammatory activity against imiquimod-induced Balb/c mouse skin inflammation model assessed as inhibition of IL-6 level at 20 mg/kg, po measured for 13 days; format: functional; set-up: scale not given: the % may be the effect or the level left; conditions: time 13 day
Structure (SMILES),logD [1],other results
CCc1ccc(N(CC(C)C)S(=O)(=O)c2ccc3c(c2)C(O)CC(C2CCNCC2)O3)cc1 (centres undefined),1.04,–
CCc1ccc(N(CC(C)C)S(=O)(=O)c2ccc3c(c2)C(OC)CC(C2CCOCC2)O3)cc1 (centres undefined),4.69,–
CCc1ccc(N(CC(C)C)S(=O)(=O)c2ccc(OCC3CCOCC3)c(CN)c2)cc1,3.25,–
CC(C)CN(c1ccc(F)cc1F)S(=O)(=O)c1ccc2c(c1)C(O)CC(C1CCOCC1)O2 (centres undefined),3.53,–
CC(C)CN(Cc1ccccc1C(F)(F)F)S(=O)(=O)c1ccc2c(c1)C(O)CC(C1CCOCC1)O2 (centres undefined),4.23,–
CCc1ccc(N(CC(C)C)S(=O)(=O)c2ccc3c(c2)C(N)CC(C2CCOCC2)O3)cc1 (centres undefined),3.08,–
CCc1ccc(N(CC(C)C)S(=O)(=O)c2ccc3c(c2)CCC(C2CCOCC2)O3)cc1 (centres undefined),5.38,–
Cc1cc(C(O)(C(F)(F)F)C(F)(F)F)ccc1N(CC(C)C)S(=O)(=O)c1ccc2c(c1)C(O)CC(C1CCOCC1)O2 (centres undefined),4.37,–
CCc1ccc(N(CC(F)(F)F)S(=O)(=O)c2ccc3c(c2)C(O)CC(C2CCOCC2)O3)cc1 (centres undefined),3.88,–
CC(C)CN(c1ccc(F)cc1)S(=O)(=O)c1ccc2c(c1)C(O)CC(C1CCOCC1)O2 (centres undefined),3.39,–
Cc1ccc(N(C2CCC2)S(=O)(=O)c2ccc3c(c2)C(O)CC(C2CCOCC2)O3)c(C)c1 (centres undefined),3.77,–
CCc1ccc(N(CC(C)C)S(=O)(=O)c2ccc3nc(C4CCOCC4)cc(O)c3c2)cc1,4.97,–
CC(C)CN(c1ccc(N(C)C)cc1)S(=O)(=O)c1ccc2c(c1)C(O)CC(C1CCOCC1)O2 (centres undefined),3.51,–
CCc1ccc(N(CC(C)C)S(=O)(=O)c2ccc3c(c2)C(O)CC(C2CCOCC2)O3)cc1 (centres undefined),4.12,CLint scaled [4]: 330 mL/min/kg; half-life ([5]; liver microsomes): 222 min
CCc1ccc(N(CC(C)C)S(=O)(=O)c2ccc(OCC3CCOCC3)c3c2CCCC3O)cc1 (centres undefined),4.95,–
CCc1ccc(N(CC(C)C)S(=O)(=O)c2ccc3c(c2)C(O)CC(C2CCN(C)CC2)O3)cc1 (centres undefined),2.67,–
CCc1ccc(N(CC(C)C)S(=O)(=O)c2ccc3c(c2)C(O)CC(C2CCN(C(=O)C4CCCC4)CC2)O3)cc1 (centres undefined),5.04,–
CCc1ccc(N(CC(C)C)S(=O)(=O)c2ccc3c(c2)C(C)(O)CC(C2CCOCC2)O3)cc1 (centres undefined),4.19,–
CCc1ccc(NS(=O)(=O)c2ccc3c(c2)C(O)CC(C2CCOCC2)O3)cc1 (centres undefined),2.59,–
O=S(=O)(c1ccc2c(c1)C(O)CC(C1CCOCC1)O2)N1CCC(c2ccccc2)CC1 (centres undefined),2.63,IC50 [2]: > 10 µM; IC50 [3]: > 10 µM
CCc1ccc(N(CC(C)C)S(=O)(=O)c2ccc3c(c2)C(OC2CCCCC2)CC(C2CCOCC2)O3)cc1 (centres undefined),6.28,–
CCc1ccc(N(CC(C)C)S(=O)(=O)c2ccc3c(c2)C=CC(C2CCOCC2)O3)cc1 (centres undefined),5.52,–
CCc1ccc(N(CC(C)C)S(=O)(=O)c2ccc3c(c2)C(O)CC(C2CCN(S(C)(=O)=O)CC2)O3)cc1 (centres undefined),3.22,–
CCc1ccc(N(CC(C)C)S(=O)(=O)c2ccc3c(c2)CCC3OC2CCOCC2)cc1 (centres undefined),4.96,–
CCc1ccc(N(CC2CCC2)S(=O)(=O)c2ccc3c(c2)C(O)CC(C2CCOCC2)O3)cc1 (centres undefined),4.01,–
CCc1ccc(N(CC(C)C)S(=O)(=O)c2ccc3c(c2)C(O)C[C@H](C2CCOCC2)O3)cc1 (some centres undefined),4.12,–
CCc1ccc(N(CC(C)C)S(=O)(=O)c2ccc(OCC3CCOCC3)c(CO)c2)cc1 [GSK2981278],4.1,CLint scaled [4]: 1610 mL/min/kg; Activity (Mus musculus [7]): 82.2%; Activity (Mus musculus [8]): 61.5%; Stability [6]: 0.2%; solubility [9]: 2.12 µg/mL; t1/2 [5]: 0.8 min; Activity (Mus musculus [10]): 59.4%
CCc1ccc(N(C2COC2)S(=O)(=O)c2ccc3c(c2)C(O)CC(C2CCOCC2)O3)cc1 (centres undefined),2.63,–
CCc1ccc(N(Cc2ccccc2)S(=O)(=O)c2ccc3c(c2)C(O)CC(C2CCOCC2)O3)cc1 (centres undefined),4.68,–

# Further lines, with some results ahead:
logD [1],Structure (SMILES),other results
4.14,CC(C)CN(c1ccccc1C(F)(F)F)S(=O)(=O)c1ccc2c(c1)C(O)CC(C1CCOCC1)O2 (centres undefined),–
3.39,CC(C)CN(c1ccccc1F)S(=O)(=O)c1ccc2c(c1)C(O)CC(C1CCOCC1)O2 (centres undefined),–
4.12,CCc1ccc(N(CC(C)C)S(=O)(=O)c2ccc3c(c2)C(O)C[C@@H](C2CCOCC2)O3)cc1 (some centres undefined),–
5.04,CCc1ccc(N(CC(C)C)S(=O)(=O)c2ccc3c(c2)C(O)CC(C(C)C2CCOCC2)O3)cc1 (centres undefined),–
1.42,CCS(=O)(=O)c1ccc(CN(CC(C)C)S(=O)(=O)c2ccc3c(c2)C(O)CC(C2CCOCC2)O3)nc1 (centres undefined),IC50 [2]: > 10 µM; IC50 [3]: > 10 µM
4.19,Cc1ccc(N(CC(C)C)S(=O)(=O)c2ccc3c(c2)C(O)CC(C2CCOCC2)O3)c(C)c1 (centres undefined),–
3.92,CC(C)CN(c1cc2ccccc2s1)S(=O)(=O)c1ccc2c(c1)C(O)CC(C1CCOCC1)O2 (centres undefined),CLint scaled [4]: 53.7 mL/min/kg; Stability [6]: 28.5%; t1/2 [5]: 25.2 min
4.44,CCc1ccc(N(CC(C)C)S(=O)(=O)c2ccc3c(c2)C(O)CC(CC2CCOCC2)O3)cc1 (centres undefined),–
4.55,CCc1ccc(N(CC(C)C)S(=O)(=O)c2ccc(OCC3CCOCC3)c3c2CCC3O)cc1 (centres undefined),–
3.41,O=S(=O)(c1ccc2c(c1)C(O)CC(C1CCOCC1)O2)N1CCCC1c1ccccc1C(F)(F)F (centres undefined),CLint scaled [4]: 172 mL/min/kg; Stability [6]: 5.2%; t1/2 [5]: 7.6 min
5.71,CCc1ccc(N(CC(C)C)S(=O)(=O)c2ccc3c(c2)C(C)CC(C2CCOCC2)O3)cc1 (centres undefined),–
3.39,CC(C)CN(c1cccc(F)c1)S(=O)(=O)c1ccc2c(c1)C(O)CC(C1CCOCC1)O2 (centres undefined),–
2.41,O=S(=O)(Nc1ccccc1C(F)(F)F)c1ccc2c(c1)C(O)CC(C1CCOCC1)O2 (centres undefined),IC50 [2]: > 10 µM; IC50 [3]: > 10 µM
3.94,CC(C)CN(C1CCc2ccc(F)cc21)S(=O)(=O)c1ccc2c(c1)C(O)CC(C1CCOCC1)O2 (centres undefined),–
3.68,CCc1ccc2c(c1)CC(C)CN2S(=O)(=O)c1ccc2c(c1)C(O)CC(C1CCOCC1)O2 (centres undefined),–
3.07,CC(C)CN(c1ccc(C#N)cc1)S(=O)(=O)c1ccc2c(c1)C(O)CC(C1CCOCC1)O2 (centres undefined),CLint scaled [4]: 1520 mL/min/kg; Stability [6]: 0.3%; t1/2 [5]: 0.8 min
